In patent publication US20200078468A1, “NEUROTENSIN RECEPTOR BINDING CONJUGATES AND FORMULATIONS THEREOF” (priority 2016, published 2020) one finds Ki and IC50 data, which are given here for ten compounds.

Square brackets hold non-standard residues; d marks the D form. Peptide text beside a SMILES is read from it. * marks the point of attachment. X2 = COc1cc2cc(c1Cl)N(C)C(=O)C[C@H](OC(=O)[C@H](C)N(C)C(=O)CCS*)[C@]1(C)O[C@H]1[C@H](C)[C@@H]1C[C@@](O)(NC(=O)O1)[C@H](OC)/C=C/C=C(\C)C2; Pen = CC(C)(S)[C@H](N)C(=O)O; Tle = CC(C)(C)[C@H](N)C(=O)O

One assay concerns the target T1, human NTSR1 (Homo sapiens, UniProt P30989).
T1 construct: host or cells: HEK-293 cells (membrane preparations)
As to the kind of experiment: radioligand-receptor binding assay, [125I] labeled neurotensin (Eurofins Panlabs). The conditions noted are these: [125I] neurotensin 0.02 nM, membranes from NTSR1 expressing HEK-293 cells, 45 minute incubation, Cheng and Prusoff; read-out: NTSR1 binding Ki. How it is done: Conjugates were assessed in an in vitro assay evaluating binding to NTSR1. A radioligand-receptor binding assay was conducted at Eurofins Panlabs (Taiwan) to determine the affinity of conjugates described herein to NTSR1. The assay measures binding of radiolabeled ligand, [^125I] labeled neurotensin, to human NTSR1 using membrane preparations from NTSR1 expressing HEK-293 cells (Human embryonic kidney cells 293). Membranes were incubated with radiolabeled neurotensin (0.02 nM) in the presence of conjugate/compound starting at a dose of either 100 nM, or 10 nM, using 3× serial dilutions to obtain a 6-pt curve. After a 45 minute incubation, membranes were filtered and washed 3× and counted to determine the remaining [^125I] neurotensin bound to the receptor. IC50 values were determined by a non-linear, least squares regression analysis using MathIQ™ (ID Business Solutions Ltd., UK). The Ki values were calculated using the equation of Cheng and Prusoff (Cheng and Prusoff, Biochem. Pharmacol. 22:3099-3108, 1973) using the observed IC50 of the tested conjugate/compound, the concentration of radioligand employed in the assay, and the historical values for the Kd of the ligand obtained at Eurofins.

The test system of assay [1] is SW48 (human colon cancer cells). Kind of assay: inhibition of SW48 cell proliferation (CellTiter Glo). The class given is cell-based. The following applies: NTSR1 targeted compound; 72 hrs; read-out: SW-48 proliferation IC50. The gist of the method:
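Cells plated at 5,000/well and grown 24 hrs were exposed to conjugates for 72 hrs at 37° C, 5% CO2, in a ten-point three-fold series starting at 10 μM; vehicle was 0.01% DMSO. Proliferation was read by CellTiter Glo. % inhibition was taken relative to vehicle, with IC50 from four-parameter nonlinear regression.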

T1 sequence (P30989 whole entry): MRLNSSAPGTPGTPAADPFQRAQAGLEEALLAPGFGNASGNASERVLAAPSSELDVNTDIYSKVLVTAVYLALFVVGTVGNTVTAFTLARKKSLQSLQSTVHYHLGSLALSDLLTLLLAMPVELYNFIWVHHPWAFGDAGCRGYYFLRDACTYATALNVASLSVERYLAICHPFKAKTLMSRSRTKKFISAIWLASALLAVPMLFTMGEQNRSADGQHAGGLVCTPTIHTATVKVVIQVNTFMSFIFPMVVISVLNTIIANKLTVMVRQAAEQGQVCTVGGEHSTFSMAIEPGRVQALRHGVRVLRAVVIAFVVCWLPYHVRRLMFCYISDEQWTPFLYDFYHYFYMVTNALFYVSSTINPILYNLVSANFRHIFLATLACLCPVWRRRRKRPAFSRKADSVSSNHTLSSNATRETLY

Turning to `CO[C@H]1C(=O)[C@]2(C)[C@@H](OC)C[C@H]3OC[C@@]3(OC(C)=O)[C@H]2[C@H](OC(=O)c2ccccc2)[C@]2(O)C[C@H](OC(=O)[C@H](OC(=O)CCCCCN3C(=O)CC(SC(C)(C)[C@H](NC(C)=O)C(=O)N4CCC[C@H]4C(=O)N[C@@H](CCCNC(=N)N)C(=O)N[C@@H](CCCNC(=N)N)C(=O)N4CCC[C@H]4C(=O)N[C@@H](Cc4ccc(O)cc4)C(=O)N[C@H](C(=O)N[C@@H](CC(C)C)C(=O)O)C(C)(C)C)C3=O)[C@@H](NC(=O)OC(C)(C)C)c3ccccc3)C(C)=C1C2(C)C` (stereo partly shown) [Compound 4], on human NTSR1, the Ki worked out at 2.06 nM. Moreover, the IC50 in assay [1] turned out to be 138 nM.
Take `COc1cc2cc(c1Cl)N(C)C(=O)C[C@H](OC(=O)[C@H](C)N(C)C(=O)CCSSC(C)(C)[C@H](NC(C)=O)C(=O)N1CCC[C@H]1C(=O)N[C@@H](CCCNC(=N)N)C(=O)N[C@@H](CCCNC(=N)N)C(=O)N1CCC[C@H]1C(=O)N[C@@H](Cc1ccc(O)cc1)C(=O)N[C@H](C(=O)N[C@@H](CC(C)C)C(=O)O)C(C)(C)C)[C@]1(C)O[C@H]1[C@H](C)[C@@H]1C[C@@](O)(NC(=O)O1)[C@H](OC)/C=C/C=C(\C)C2` [Compound 12] (Ac-[Pen](X2)PRRPY[Tle]L-OH): the Ki on human NTSR1 was 1.03 nM. The IC50 in assay [1] was determined as 15 nM.
In the case of `COc1cc2cc(c1Cl)N(C)C(=O)C[C@H](OC(=O)[C@H](C)N(C)C(=O)CCSC1CC(=O)N(CCCNC(=O)CNC(=O)[C@H](CC(C)C)NC(=O)[C@H](Cc3ccccc3)NC(=O)CNC(=O)CCCCCN3C(=O)CC(SC(C)(C)[C@H](NC(C)=O)C(=O)N4CCC[C@H]4C(=O)N[C@@H](CCCNC(=N)N)C(=O)N[C@@H](CCCNC(=N)N)C(=O)N4CCC[C@H]4C(=O)N[C@@H](Cc4ccc(O)cc4)C(=O)N[C@H](C(=O)N[C@@H](CC(C)C)C(=O)O)C(C)(C)C)C3=O)C1=O)[C@]1(C)O[C@H]1[C@H](C)[C@@H]1C[C@@](O)(NC(=O)O1)[C@H](OC)/C=C/C=C(\C)C2` (stereo partly shown) [Compound 16], the Ki at human NTSR1 is 1.64 nM. Further, the IC50 in assay [1] turned out to be 15 nM.
In the case of `CC[C@H](C)[C@H](NC(=O)[C@H](Cc1c[nH]c2ccccc12)NC(=O)[C@@H]1CCCN1C(=O)[C@H](CCCNC(=N)N)NC(=O)[C@@H](CCCNC(=N)N)NC(=O)[C@@H]1CCCN1C(=O)[C@H](CCCCNC(=O)CCSC1CC(=O)N(CCCCCC(=O)NCC(=O)N[C@@H](Cc2ccccc2)C(=O)N[C@@H](CC(C)C)C(=O)NCC(=O)NCCCN2C(=O)CC(SCCC(=O)N(C)[C@@H](C)C(=O)O[C@H]3CC(=O)N(C)c4cc(cc(OC)c4Cl)C/C(C)=C/C=C/[C@@H](OC)[C@@]4(O)C[C@H](OC(=O)N4)[C@@H](C)[C@@H]4O[C@@]34C)C2=O)C1=O)NC(C)=O)C(=O)N[C@@H](C[Si](C)(C)C)C(=O)O` (stereo partly shown) [Compound 43], at human NTSR1, the inhibitory constant (Ki) was determined as 1.31 nM.
The same measure, in the same setting: then `CC[C@H](C)[C@H](NC(=O)[C@H](Cc1ccc(O)c(O)c1)NC(=O)[C@@H]1CCCN1C(=O)[C@H](CCCNC(=N)N)NC(=O)[C@@H](CCCNC(=N)N)NC(=O)[C@@H]1CCCN1C(=O)[C@H](CCCCNC(=O)CCSC1CC(=O)N(CCCCCC(=O)NCC(=O)N[C@@H](Cc2ccccc2)C(=O)N[C@@H](CC(C)C)C(=O)NCC(=O)NCCCN2C(=O)CC(SCCC(=O)N(C)[C@@H](C)C(=O)O[C@H]3CC(=O)N(C)c4cc(cc(OC)c4Cl)C/C(C)=C/C=C/[C@@H](OC)[C@@]4(O)C[C@H](OC(=O)N4)[C@@H](C)[C@@H]4O[C@@]34C)C2=O)C1=O)NC(C)=O)C(=O)N[C@@H](C[Si](C)(C)C)C(=O)O` (stereo partly shown) [Compound 44], with 0.23 nM.
Same read-out and setting: to `CC[C@H](C)[C@H](NC(=O)[C@@H](Cc1ccc(O)cc1)NC(=O)[C@@H]1CCCN1C(=O)[C@H](CCCNC(=N)N)NC(=O)[C@@H](CCCNC(=N)N)NC(=O)[C@@H]1CCCN1C(=O)[C@H](CCCCNC(=O)CCSC1CC(=O)N(CCCCCC(=O)NCC(=O)N[C@@H](Cc2ccccc2)C(=O)N[C@@H](CC(C)C)C(=O)NCC(=O)NCCCN2C(=O)CC(SCCC(=O)N(C)[C@@H](C)C(=O)O[C@H]3CC(=O)N(C)c4cc(cc(OC)c4Cl)C/C(C)=C/C=C/[C@@H](OC)[C@@]4(O)C[C@H](OC(=O)N4)[C@@H](C)[C@@H]4O[C@@]34C)C2=O)C1=O)NC(C)=O)C(=O)N[C@@H](C[Si](C)(C)C)C(=O)O` (stereo partly shown) [Compound 45] belongs above 10 nM; to `CC[C@H](C)[C@H](NC(=O)[C@H](Cc1ccc(OC)c(OC)c1)NC(=O)[C@@H]1CCCN1C(=O)[C@H](CCCNC(=N)N)NC(=O)[C@@H](CCCNC(=N)N)NC(=O)[C@@H]1CCCN1C(=O)[C@H](CCCCNC(=O)CCSC1CC(=O)N(CCCCCC(=O)NCC(=O)N[C@@H](Cc2ccccc2)C(=O)N[C@@H](CC(C)C)C(=O)NCC(=O)NCCCN2C(=O)CC(SCCC(=O)N(C)[C@@H](C)C(=O)O[C@H]3CC(=O)N(C)c4cc(cc(OC)c4Cl)C/C(C)=C/C=C/[C@@H](OC)[C@@]4(O)C[C@H](OC(=O)N4)[C@@H](C)[C@@H]4O[C@@]34C)C2=O)C1=O)NC(C)=O)C(=O)N[C@@H](C[Si](C)(C)C)C(=O)O` (stereo partly shown) [Compound 46], above 10 nM; to `CC[C@H](C)[C@H](NC(=O)[C@H](Cc1ccc(Cl)c(Cl)c1)NC(=O)[C@@H]1CCCN1C(=O)[C@H](CCCNC(=N)N)NC(=O)[C@@H](CCCNC(=N)N)NC(=O)[C@@H]1CCCN1C(=O)[C@H](CCCCNC(=O)CCSC1CC(=O)N(CCCCCC(=O)NCC(=O)N[C@@H](Cc2ccccc2)C(=O)N[C@@H](CC(C)C)C(=O)NCC(=O)NCCCN2C(=O)CC(SCCC(=O)N(C)[C@@H](C)C(=O)O[C@H]3CC(=O)N(C)c4cc(cc(OC)c4Cl)C/C(C)=C/C=C/[C@@H](OC)[C@@]4(O)C[C@H](OC(=O)N4)[C@@H](C)[C@@H]4O[C@@]34C)C2=O)C1=O)NC(C)=O)C(=O)N[C@@H](C[Si](C)(C)C)C(=O)O` (stereo partly shown) [Compound 47], above 10 nM.
Still for that read-out and setting: to `COc1cc2cc(c1Cl)N(C)C(=O)C[C@H](OC(=O)[C@H](C)N(C)C(=O)CCSC1CC(=O)N(CCCNC(=O)CNC(=O)[C@H](CC(C)C)NC(=O)[C@H](Cc3ccccc3)NC(=O)CNC(=O)CCCCCN3C(=O)CC(SCCC(=O)NCCCC[C@H](NC(C)=O)C(=O)N4CCC[C@H]4C(=O)N[C@@H](CCCCN)C(=O)N[C@@H](CCCCN)C(=O)N4CCC[C@H]4C(=O)N[C@@H](Cc4ccc(O)cc4)C(=O)N[C@@H](C[Si](C)(C)C)C(=O)N[C@@H](C[Si](C)(C)C)C(=O)O)C3=O)C1=O)[C@]1(C)O[C@H]1[C@H](C)[C@@H]1C[C@@](O)(NC(=O)O1)[C@H](OC)/C=C/C=C(\C)C2` (stereo partly shown) [Compound 48] belongs above 10 nM.
Consider `COc1cc2cc(c1Cl)N(C)C(=O)C[C@H](OC(=O)[C@H](C)N(C)C(=O)CCSC1CC(=O)N(CCCNC(=O)CNC(=O)[C@H](CC(C)C)NC(=O)[C@H](Cc3ccccc3)NC(=O)CNC(=O)CCCCCN3C(=O)CC(SCCC(=O)NCCCC[C@H](NC(=O)c4ccc(N=[N+]=[N-])cc4)C(=O)N4CCC[C@H]4C(=O)N(C)[C@@H](CCCNC(=N)N)C(=O)N[C@@H](CCCNC(=N)N)C(=O)N4CCC[C@H]4C(=O)N[C@@H](Cc4ccc(O)cc4)C(=O)N[C@H](C(=O)N[C@@H](CC(C)C)C(=O)O)C(C)(C)C)C3=O)C1=O)[C@]1(C)O[C@H]1[C@H](C)[C@@H]1C[C@@](O)(NC(=O)O1)[C@H](OC)/C=C/C=C(\C)C2` (stereo partly shown) [Compound 49], for which the Ki on human NTSR1 amounted to 0.18 nM.
